The text below walks through data of paper PMC4193892, “3-O-Galloylated Procyanidins from Rumex acetosa L. Inhibit the Attachment of Influenza A Virus” (PLoS ONE, 2014).

One data set relates to MDCK II cells. Description: cells. As to conditions: Canis lupus familiaris, 48 h, read-out: cell vitality.
Data set [1] relates to IAV(H1N1)pdm09 isolate I1. Description: microbe, parasite or virus in culture. In kind it is cell-based, influenza A virus. As to conditions: Influenza A virus.
The next data set in a line: in vitro. As to conditions: dog.
In the next data set the test system is chicken erythrocytes. The data set can be described thus: Direct agglutination of erythrocytes in the absence of IAV. In kind it is cell-based. As to conditions: minimal concentration. Here is the method:
Twofold serial dilutions (25 µL) of test compounds in PBS and 4 hemagglutinating units (HU) of IAV (25 µl) were mixed carefully in 96-well plates with U-shaped bottom (Thermo Fisher Scientific Nunc, Schwerte, Germany). Plates were shaken for 5 min. and incubated for 25 min. at room temperature (RT). 50 µL of a 1.5% suspension of newborn chicken erythrocytes (RBC) in PBS (Labor Dr. Merk & Kollegen, Ochsenhausen, Germany) were added, and plates shaken again. Assays were read following a 2 h incubation period at RT, and the minimum inhibitory concentration (MIC), defined as the highest test compound dilution showing complete inhibition of the agglutination of erythrocytes, was determined. In every assay, a test compound control (compound plus RBC without addition of IAV), and erythrocyte controls (A: IAV plus RBC, without addition of test compound; B: RBC, without addition of test compound or IAV) were included.

The test system of another data set is IAV(H1N1)pdm09 I1. In kind it is cell-based, influenza A virus.

Molecules are shown by their SMILES.

By IC50 is commonly meant the midpoint of a concentration-inhibition curve. The low end stands for greater potency, the high end for weaker potency. In the case of `O=C(O[C@@H]1Cc2c(O)cc(O)cc2O[C@@H]1c1cc(O)c(O)c(O)c1)c1cc(O)c(O)c(O)c1` [compound 6, reference compound], in the data set on MDCK II cells, the viability at 2 µM was found to be 103 ± 4%, the viability at 20 µM turned out to be 92 ± 7% and the viability at 200 µM is 62 ± 9%. Also, in data set [1] (H1N1), the half-maximal inhibitory concentration (IC50) is at most 12 µM. Besides, in data set [1] (H1N1, 48 h, 2 µM, read-out: anti-IAV activity), the inhibition at 2 µM was 1 ± 1%. Besides, the inhibition at 20 µM in data set [1] (H1N1, 48 h, 20 µM, read-out: anti-IAV activity) worked out at 87 ± 25%. Further, the inhibition at 200 µM in data set [1] (H1N1, 48 h, 200 µM, read-out: anti-IAV activity) amounted to 60 ± 7%. The CC50 at 48 h in “in vitro” was over 200 µM. This compound displayed a direct agglutination in the data set on chicken erythrocytes of 156 µM. Besides, the MIC entry against IAV(H1N1)pdm09 I1 is “no inhibitory effect”.
